Data set [1] concerns TLR4 (LPS-stimulated NO production, BV-2 mouse microglia cell line). Nature of the data set: NO assay: inhibition of LPS-induced NO production in BV-2 microglia (iNOS cellular). In kind it is cell-based. The following applies: Mus musculus. The text has this:
NO assay: Microglia are the resident cells of the innate immune system in the central nervous system, and TLR4 is primarily expressed by microglia rather than astrocytes or neurons in the CNS. Given this expression profile, the BV-2 mouse microglia cell line was used as the model system of microglia, as these cells recapitulate many of the responses of primary microglia with high fidelity. TLR4 activation induces the downstream production of the inflammatory factor NO, which contributes to the development of neuropathic pain and drug addiction. BV-2 murine microglia were grown in supplemented DMEM (including 10% FBS, 50 unit mL^−1 penicillin, 50 μg·mL^−1 streptomycin). BV-2 cells were detached from the flask by trypsin digestion when ˜80% confluence was reached. Cells were seeded at a density of 4×10^4 cells per well in 96-well plates. After overnight incubation, media was aspirated and changed to DMEM media without FBS. Cells were then treated with LPS (200 ng/ml) and different concentrations of the testing compounds. After 24 h treatment, 100 μL of supernatant media was removed after cells were treated for 24 h and added to flat black 96-well microfluor plates (Thermo Scientific, MA, USA). Subsequently, 10 μL of 2, 3-diaminonaphthalene (0.05 mg·mL^−1 in 0.62 M HCl) was added to each well and incubated for 15 min. The reaction was quenched by addition of 5 μL of 3 M NaOH and the plate was read on a Beckman Coulter DTX880 reader (Fullerton, Calif., USA) with excitation at 360 nm and emission at 430 nm.
N chain NTX: This experimentation involved an in vitro assay where mouse BV2 cells were treated with LPS, which results in the release of nitric oxide (NO). Blockade of TLR4 activity results in reduced NO production. Therefore, IC50 values were determined for test compounds that antagonize TLR4 activity. A series of test compounds were prepared, with different N-alkyl chains replacing the cyclopropyl methyl found in naltrexone. Cell viability was also measured by a standard assay, e.g., measurement of the release of cytoplasm-resident enzymes in the tissue culture supernatant or media to detect cell loss/lysis/rupture. A dose-inhibition curve was generated by testing the TLR4 antagonist compound for the ability to block LPS-stimulated iNOs induction. In FIG. 7, the inhibition levels across a range of doses are graphed, along with a regression curve. The IC50 value—50% inhibition level—is also provided, graphed against the length of the alkyl chain. Note that with longer N-alkyl chain the IC50 was reduced, although cell viability became problematic.
FIGS. 8B to 8D show the results of the inhibition of NO production from LPS-stimulated BV2 cells using the assay described above.

The next data set deals with iNOS (Homo sapiens, UniProt P35228). Nature of the data set: iNOS enzyme inhibition. The class given is biochemical.
iNOS, sequence (P35228 whole entry): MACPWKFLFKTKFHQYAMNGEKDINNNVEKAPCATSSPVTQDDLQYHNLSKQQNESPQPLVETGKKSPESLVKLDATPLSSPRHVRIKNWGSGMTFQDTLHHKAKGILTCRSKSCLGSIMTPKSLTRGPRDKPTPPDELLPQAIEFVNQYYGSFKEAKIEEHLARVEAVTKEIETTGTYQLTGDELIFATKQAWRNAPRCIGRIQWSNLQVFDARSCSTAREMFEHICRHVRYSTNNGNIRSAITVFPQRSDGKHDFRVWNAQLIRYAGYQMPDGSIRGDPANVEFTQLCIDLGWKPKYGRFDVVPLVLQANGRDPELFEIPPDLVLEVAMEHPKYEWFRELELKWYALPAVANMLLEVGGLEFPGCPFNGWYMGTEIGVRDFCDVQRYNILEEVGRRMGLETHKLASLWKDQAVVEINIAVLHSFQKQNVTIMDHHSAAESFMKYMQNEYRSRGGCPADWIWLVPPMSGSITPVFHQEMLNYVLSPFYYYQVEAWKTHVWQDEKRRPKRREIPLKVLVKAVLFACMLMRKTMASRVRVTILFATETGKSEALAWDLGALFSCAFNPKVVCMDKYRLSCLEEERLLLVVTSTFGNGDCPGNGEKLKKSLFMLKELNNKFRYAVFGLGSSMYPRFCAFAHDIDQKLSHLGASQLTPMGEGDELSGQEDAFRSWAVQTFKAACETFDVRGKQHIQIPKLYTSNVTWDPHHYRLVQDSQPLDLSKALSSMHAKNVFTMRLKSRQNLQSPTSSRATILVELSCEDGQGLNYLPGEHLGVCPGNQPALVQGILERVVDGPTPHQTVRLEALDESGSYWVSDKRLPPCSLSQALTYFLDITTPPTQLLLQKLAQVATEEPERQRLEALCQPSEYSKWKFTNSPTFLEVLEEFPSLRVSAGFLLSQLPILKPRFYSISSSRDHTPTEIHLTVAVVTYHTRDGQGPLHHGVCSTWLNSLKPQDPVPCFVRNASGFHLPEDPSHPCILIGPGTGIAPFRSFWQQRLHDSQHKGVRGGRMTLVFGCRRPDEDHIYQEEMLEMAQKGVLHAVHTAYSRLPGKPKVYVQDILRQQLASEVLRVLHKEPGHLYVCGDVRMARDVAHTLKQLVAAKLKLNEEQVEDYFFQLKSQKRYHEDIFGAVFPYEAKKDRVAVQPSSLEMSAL
A further data set addresses hERG (Homo sapiens, UniProt Q12809). Description: hERG inhibition.
In data set [2] the test system is off-target screening panel. Description: Off-target inhibition screening (whole panel). The following applies: 10 μM test concentration; hit = inhibition at or above the 50% level. The text has this: (§1) In addition to the animal studies presented above in Examples 1-9, the results of in vitro testing of several of the compounds (i.e., XT-203, XT-204, and XT-206 through XT-217) are shown in Table 5 and Table 6. […]. Nine additional compounds had two or fewer off-target hits in the screening. […] These compounds spanned all of the tested N-modification classes. […]. Thus, the medicinal chemistry approach taken in this series of fluorinated compounds can yield low off-target activity and longer metabolic lifetime while preserving TLR4 antagonism. It is appreciated that further development of compounds in this class, using techniques known to those skilled in the art, may yield additional compounds with desirable pharmacologic and toxicologic characteristics.

The next data set concerns the target Adenosine A2A (Homo sapiens, UniProt P29274). Description: Off-target screening. In kind it is binding.
Text: as §1

Another data set addresses Cannabinoid CB1 (Homo sapiens, UniProt P21554). Nature of the data set: Off-target screening. In kind it is binding.
Text: as §1

Data set [3] is described as follows: Hepatocyte elimination of parent compound, spread across species. In kind it is in vitro ADME. The note with it: mouse, rat, dog, monkey, human, hepatocytes; lowest to highest species value; read-out: range of hepatocyte elimination half-life values across species. Here is the method:
Hepatocyte Elimination: (+)-NTX, AK-17 and XT-203 were incubated with cultured hepatocytes from the species listed in FIG. 9 and Table 4, and samples of the culture supernatant were collected over time. Samples were concentrated by nitrogen drying followed by reconstitution with 40% methanol for LC/MS analysis The data points were analyzed using the WinNonLin pharmacokinetics software package, and a half-life was determined that describes the rate of parent elimination. […].
as §1

The nature of data set [4]: in vitro. The note with it: mouse, hepatocytes.
The nature of data set [5]: in vitro. The following applies: rat, cultured hepatocytes.
Data set [6] can be described thus: in vitro. The note with it: dog, cultured hepatocytes.
Data set [7] in a line: in vitro. The following applies: monkey, cultured hepatocytes.
A short description of data set [8]: in vitro. The following applies: human, cultured hepatocytes.
Data set [9] addresses Protein tyrosine kinase LCK (Homo sapiens, UniProt P06239). Description: Off-target screening. In kind it is biochemical.
Text: as §1

In a further data set the test system is Human hepatocytes. Description: Hepatocyte elimination of parent compound. The following applies: cultured hepatocytes.
The next data set deals with Adrenergic α1A. Description: Off-target screening. The class given is binding.
Text: as §1

The subject of a further data set is Adrenergic α1B. Nature of the data set: Off-target screening. The class given is binding.
Text: as §1

The next data set has as its target Adrenergic α1D (Homo sapiens, UniProt P25100). Nature of the data set: Off-target screening. The class given is binding.
Text: as §1

The next data set addresses T1, Adrenergic α2A (Homo sapiens, UniProt P08913).
T1 sequence (P08913 1-465): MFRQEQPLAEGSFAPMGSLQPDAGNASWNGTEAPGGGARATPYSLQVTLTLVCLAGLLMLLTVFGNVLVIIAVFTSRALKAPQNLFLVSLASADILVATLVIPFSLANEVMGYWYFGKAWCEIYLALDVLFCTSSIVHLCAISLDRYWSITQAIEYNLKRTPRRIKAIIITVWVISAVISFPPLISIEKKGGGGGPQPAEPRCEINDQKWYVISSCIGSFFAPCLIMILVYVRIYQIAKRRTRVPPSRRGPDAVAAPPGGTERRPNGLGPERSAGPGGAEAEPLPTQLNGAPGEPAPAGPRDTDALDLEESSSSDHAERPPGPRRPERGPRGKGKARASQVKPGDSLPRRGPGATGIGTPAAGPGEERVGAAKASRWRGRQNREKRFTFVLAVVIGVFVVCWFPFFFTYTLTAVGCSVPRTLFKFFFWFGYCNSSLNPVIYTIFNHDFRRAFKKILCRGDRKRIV
Nature of the data set: Off-target screening. In kind it is binding. The following applies: 10 μM.
Text: as §1

A further data set concerns the target Adrenergic α2B (Homo sapiens, UniProt P18089). Description: Off-target screening. The class given is binding.
Text: as §1

The test system of data set [10] is Calcium channel L-Type, benzothiazepine. Nature of the data set: Off-target screening. In kind it is binding.
Text: as §1

Data set [11] deals with Calcium channel L-Type, phenylalkylamine. Nature of the data set: Off-target screening. In kind it is binding.
Text: as §1

The target in the next data set is Dopamine D2L (Homo sapiens, UniProt P14416). Nature of the data set: Off-target screening. The class given is binding.
Dopamine D2L, sequence (P14416 whole entry): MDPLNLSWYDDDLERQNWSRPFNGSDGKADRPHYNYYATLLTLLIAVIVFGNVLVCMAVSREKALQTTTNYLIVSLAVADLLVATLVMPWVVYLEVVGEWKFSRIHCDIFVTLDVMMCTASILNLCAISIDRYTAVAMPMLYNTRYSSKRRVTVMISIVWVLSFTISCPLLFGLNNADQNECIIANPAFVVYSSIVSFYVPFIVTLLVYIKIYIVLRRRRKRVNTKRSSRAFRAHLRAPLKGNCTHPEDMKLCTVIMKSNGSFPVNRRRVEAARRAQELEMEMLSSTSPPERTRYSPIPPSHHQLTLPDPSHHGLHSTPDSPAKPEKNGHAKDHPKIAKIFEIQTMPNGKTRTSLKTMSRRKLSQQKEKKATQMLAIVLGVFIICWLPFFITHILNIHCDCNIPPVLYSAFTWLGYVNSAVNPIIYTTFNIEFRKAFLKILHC
Text: as §1

In a further data set the target is Dopamine D2S (Homo sapiens, UniProt P14416). Nature of the data set: Off-target screening. In kind it is binding.
Text: as §1

The next data set concerns the target Histamine H2 (Homo sapiens, UniProt P25021). Nature of the data set: Off-target screening. In kind it is binding.
Text: as §1

The target in a further data set is Opiate κ (OP2, KOP) (Homo sapiens, UniProt P41145). Nature of the data set: Off-target screening. In kind it is binding.
Opiate κ (OP2, KOP), sequence (P41145 whole entry): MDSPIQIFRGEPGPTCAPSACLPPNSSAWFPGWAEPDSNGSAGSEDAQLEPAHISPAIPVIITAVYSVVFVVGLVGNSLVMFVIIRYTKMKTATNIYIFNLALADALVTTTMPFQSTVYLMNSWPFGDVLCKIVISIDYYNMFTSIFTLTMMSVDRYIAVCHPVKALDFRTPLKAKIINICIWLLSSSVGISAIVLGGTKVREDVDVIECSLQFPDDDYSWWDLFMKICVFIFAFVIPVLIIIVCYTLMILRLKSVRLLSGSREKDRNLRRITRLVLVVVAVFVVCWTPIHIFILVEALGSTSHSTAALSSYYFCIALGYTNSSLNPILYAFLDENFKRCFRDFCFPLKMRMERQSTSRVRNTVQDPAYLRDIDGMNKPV
Text: as §1

A further data set concerns the target Opiate μ (OP3, MOP) (Homo sapiens, UniProt P35372). Description: Off-target screening. In kind it is binding.
Text: as §1

The subject of a further data set is Sodium channel site 2. Nature of the data set: Off-target screening. In kind it is binding.
Text: as §1

A further data set has as its target Tachykinin NK1 (Homo sapiens, UniProt P25103). Nature of the data set: Off-target screening. In kind it is binding.
Text: as §1

The target of data set [12] is Transporter, Norepinephrine (NET) (Homo sapiens, UniProt P23975). Description: Off-target screening. In kind it is binding.
Transporter, Norepinephrine (NET), sequence (P23975 whole entry): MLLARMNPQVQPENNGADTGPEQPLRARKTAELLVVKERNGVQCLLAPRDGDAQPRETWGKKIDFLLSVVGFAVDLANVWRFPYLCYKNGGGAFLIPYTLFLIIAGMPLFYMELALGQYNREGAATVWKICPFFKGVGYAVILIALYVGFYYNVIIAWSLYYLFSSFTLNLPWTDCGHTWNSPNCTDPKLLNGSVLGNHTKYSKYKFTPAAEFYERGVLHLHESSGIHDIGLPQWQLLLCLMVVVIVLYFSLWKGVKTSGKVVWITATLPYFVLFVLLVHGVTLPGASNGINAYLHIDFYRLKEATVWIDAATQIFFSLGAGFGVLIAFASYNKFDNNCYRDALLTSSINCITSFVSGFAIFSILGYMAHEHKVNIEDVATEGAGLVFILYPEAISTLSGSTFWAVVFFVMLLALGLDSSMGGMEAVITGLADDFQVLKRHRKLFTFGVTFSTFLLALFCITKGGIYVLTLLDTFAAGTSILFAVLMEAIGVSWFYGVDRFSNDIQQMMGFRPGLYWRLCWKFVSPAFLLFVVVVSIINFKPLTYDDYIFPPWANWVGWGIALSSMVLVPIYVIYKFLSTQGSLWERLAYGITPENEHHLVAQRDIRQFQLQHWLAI
Text: as §1

Data set [13] concerns GABA A, chloride channel, TBOB. Nature of the data set: Off-target screening. The class given is binding.
Text: as §1

For a further data set, the target named is Progesterone, PR-B (Homo sapiens, UniProt P06401). Description: Off-target screening. In kind it is binding.
Text: as §1

For another data set, the system named is Transporter, Adenosine. Nature of the data set: Off-target screening. In kind it is binding.
Text: as §1

The target of data set [14] is Transporter, Dopamine (DAT) (Homo sapiens, UniProt Q01959). Nature of the data set: Off-target screening. In kind it is binding.
Text: as §1

The next data set has as its target Vasopressin V1A (Homo sapiens, UniProt P37288). Nature of the data set: Off-target screening. The class given is binding.
Text: as §1

The mark [15] stands for this setting: Microglia, Table 6, unit inferred, footnote: Indicator of TL4 antagonism.
Setting [16] is: LPS (200 ng/ml), 24 h, BV-2 cells, Table 3.
Setting [17] is: read-out: iNOS enzyme, Table 6, unit inferred.

Experimental findings from patent publication US11505556B2, “Halogenated derivatives of morphinans and uses thereof” (Xalud Therapeutics, Inc., priority 2017, dated 2022) are described below.

Several values for one entry are separate records, joined by “and”; a condition that tells them apart may be missing. Identical values can stand only once. Like-named read-outs stand apart in the source and are kept apart here.

hERG, sequence (Q12809 whole entry): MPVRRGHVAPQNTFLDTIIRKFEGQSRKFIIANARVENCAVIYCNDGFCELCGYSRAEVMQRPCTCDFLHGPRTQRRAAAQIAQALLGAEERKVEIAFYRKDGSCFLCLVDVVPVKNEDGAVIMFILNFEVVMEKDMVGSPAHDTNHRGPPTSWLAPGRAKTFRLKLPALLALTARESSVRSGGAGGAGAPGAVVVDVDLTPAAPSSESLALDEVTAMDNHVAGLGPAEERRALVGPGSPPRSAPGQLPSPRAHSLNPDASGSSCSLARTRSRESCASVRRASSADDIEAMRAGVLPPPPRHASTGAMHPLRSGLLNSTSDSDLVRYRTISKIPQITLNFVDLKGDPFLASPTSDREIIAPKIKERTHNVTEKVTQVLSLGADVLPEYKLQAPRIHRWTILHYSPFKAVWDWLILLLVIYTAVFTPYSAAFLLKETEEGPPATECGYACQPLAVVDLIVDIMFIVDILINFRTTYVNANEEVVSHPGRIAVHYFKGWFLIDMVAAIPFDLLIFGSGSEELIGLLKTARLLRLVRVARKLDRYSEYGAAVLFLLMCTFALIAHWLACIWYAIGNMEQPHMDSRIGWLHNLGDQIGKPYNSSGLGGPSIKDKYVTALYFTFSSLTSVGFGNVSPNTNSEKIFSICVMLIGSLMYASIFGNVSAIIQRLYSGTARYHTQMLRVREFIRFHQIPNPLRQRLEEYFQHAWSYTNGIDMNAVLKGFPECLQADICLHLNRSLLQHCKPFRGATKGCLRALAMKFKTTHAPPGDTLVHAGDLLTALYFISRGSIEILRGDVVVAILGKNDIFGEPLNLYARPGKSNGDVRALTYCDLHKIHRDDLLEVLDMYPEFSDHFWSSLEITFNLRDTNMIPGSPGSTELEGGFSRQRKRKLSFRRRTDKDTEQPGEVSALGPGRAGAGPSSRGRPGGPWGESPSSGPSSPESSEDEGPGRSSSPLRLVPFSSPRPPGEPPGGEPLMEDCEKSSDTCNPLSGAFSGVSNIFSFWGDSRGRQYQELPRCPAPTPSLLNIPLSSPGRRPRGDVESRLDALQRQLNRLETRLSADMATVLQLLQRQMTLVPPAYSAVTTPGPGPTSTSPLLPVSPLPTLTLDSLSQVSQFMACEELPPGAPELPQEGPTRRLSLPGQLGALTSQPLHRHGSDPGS
Cannabinoid CB1, sequence (P21554 whole entry): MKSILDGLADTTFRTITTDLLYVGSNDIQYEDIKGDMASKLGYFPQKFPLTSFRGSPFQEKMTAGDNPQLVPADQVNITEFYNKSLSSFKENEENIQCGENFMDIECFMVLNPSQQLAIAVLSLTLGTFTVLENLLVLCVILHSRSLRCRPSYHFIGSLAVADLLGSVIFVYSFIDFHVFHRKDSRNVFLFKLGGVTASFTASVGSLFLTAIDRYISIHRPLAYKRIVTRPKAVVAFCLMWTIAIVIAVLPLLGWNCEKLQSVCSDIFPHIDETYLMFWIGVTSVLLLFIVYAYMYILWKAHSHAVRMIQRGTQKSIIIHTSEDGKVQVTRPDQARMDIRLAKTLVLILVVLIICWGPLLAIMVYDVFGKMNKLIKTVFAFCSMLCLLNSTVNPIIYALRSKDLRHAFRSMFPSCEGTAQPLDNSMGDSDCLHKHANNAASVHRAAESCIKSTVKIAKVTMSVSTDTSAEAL
Adenosine A2A, sequence (P29274 whole entry): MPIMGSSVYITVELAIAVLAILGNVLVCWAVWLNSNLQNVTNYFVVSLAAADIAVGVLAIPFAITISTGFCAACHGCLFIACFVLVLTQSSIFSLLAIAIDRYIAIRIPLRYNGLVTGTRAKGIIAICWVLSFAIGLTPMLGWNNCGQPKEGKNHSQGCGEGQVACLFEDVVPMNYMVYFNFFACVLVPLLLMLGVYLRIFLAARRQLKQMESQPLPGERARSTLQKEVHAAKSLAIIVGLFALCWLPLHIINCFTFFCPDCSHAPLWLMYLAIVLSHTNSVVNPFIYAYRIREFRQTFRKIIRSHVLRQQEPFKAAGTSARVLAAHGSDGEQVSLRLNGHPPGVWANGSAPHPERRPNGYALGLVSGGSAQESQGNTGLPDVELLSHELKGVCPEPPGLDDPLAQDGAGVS
Histamine H2, sequence (P25021 whole entry): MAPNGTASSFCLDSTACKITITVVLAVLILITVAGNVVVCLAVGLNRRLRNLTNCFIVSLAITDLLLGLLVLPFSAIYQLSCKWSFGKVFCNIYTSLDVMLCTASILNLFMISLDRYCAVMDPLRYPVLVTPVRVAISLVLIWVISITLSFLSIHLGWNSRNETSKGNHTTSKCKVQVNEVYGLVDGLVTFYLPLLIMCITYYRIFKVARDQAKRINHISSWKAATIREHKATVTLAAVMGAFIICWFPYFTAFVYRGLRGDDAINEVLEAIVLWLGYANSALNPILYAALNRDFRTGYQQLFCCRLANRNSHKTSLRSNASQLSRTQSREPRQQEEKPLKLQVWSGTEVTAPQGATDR

`COc1ccc2c3c1O[C@@H]1C(F)CCC4[C@H](C2)N(S(=O)(=O)c2ccccc2)CC[C@]341` (stereo partly shown) [XT-208]: the IC50 (in [1] (setting [15]); in data set [1] (setting [16]); on iNOS; on iNOS (setting [17]); against hERG) was above 10 µM throughout. For the same compound, the “off-target hits in the screening” value in data set [2] is “two off-target hits”. The inhibition at 10 µM came out at 64% against Adenosine A2A and 54% at Cannabinoid CB1. Moreover, the half-life in data set [3] was 8.7 to 19.7 min; in “in vitro [4]” it was 10.9 min; in “in vitro [5]”, 12.7 min; in the data set “in vitro [6]”, 14.6 min; in the data set “in vitro [7]”, 8.7 min; in the data set “in vitro [8]”, 19.7 min.
For the compound `COc1ccc2c3c1O[C@@H]1C(F)CCC4[C@H](C2)N(S(C)(=O)=O)CC[C@]341` (stereo partly shown) [XT-209], the IC50 (in data set [1] (setting [15]); in [1] (setting [16]); against iNOS; on iNOS (setting [17]); against hERG) was above 10 µM throughout. In addition, in data set [2], the “off-target hits in the screening” value was “one off-target hit”. Moreover, the inhibition at 10 µM in data set [9] came to 61%. For the same compound, the half-life in data set [3] is 15.3 to 296 min; in “in vitro [4]” it was 22.4 min; in “in vitro [5]”, 15.3 min; in the data set “in vitro [6]”, 89 min; in “in vitro [7]”, 39.4 min; in the data set “in vitro [8]”, 296 min. For the same compound, the “parent duration in human hepatocytes relative to XT-203” value with Human hepatocytes is on record as “longer parent duration than XT-203”.
As to `COc1ccc2c3c1O[C@@H]1C(F)CCC4[C@H](C2)N(C(C)Cc2ccccc2)CC[C@]341` (stereo partly shown) [XT-215], the IC50 in [1] (setting [15]) is above 10 µM; in data set [1] (setting [16]) it was above 10 µM; at hERG (human), 10 µM. The inhibition at 10 µM on hERG (human, read-out: hERG inhibition, percent) came out at 51%; on Adrenergic α1D it was 92%; against Adrenergic α2A, 96%; on Adrenergic α2B, 105%; against Cannabinoid CB1, 57%; at Dopamine D2L, 65%. Also, the inhibition at 10 µM came to 81% on Dopamine D2S; 82% at Histamine H2; 79% against Opiate κ (OP2, KOP); 79% at Opiate μ (OP3, MOP); 55% at Tachykinin NK1; 61% in data set [12]. Besides, in the data set with Adrenergic α1A, the “% Inhibition at 10 μM, Adrenergic α1A” value was 85% and 99%. The “% Inhibition at 10 μM, Adrenergic α1B” value in the data set with Adrenergic α1B is recorded as 99%. In addition, in data set [10], the “% Inhibition at 10 μM, Calcium channel L-Type, benzothiazepine” value was 51% and 73%. Also, the “% Inhibition at 10 μM, Calcium channel L-Type phenylalkylamine” value in data set [11] is 73% and 51%. Also, the “% Inhibition at 10 μM, Sodium channel site 2” value in the data set on Sodium channel site 2 is reported as 101%. The half-life turned out to be 20.7 min in the data set “in vitro [4]”; 12.7 min in “in vitro [5]”; 19.6 min in “in vitro [6]”; 22.1 min in “in vitro [7]”; 65.6 min in the data set “in vitro [8]”.
Take `COc1ccc2c3c1O[C@@H]1C(F)CCC4[C@H](C2)N(C(=O)C(C)(C)c2ccccc2)CC[C@]341` (stereo partly shown) [XT-216]: the IC50 (in data set [1] (setting [15]); in data set [1] (setting [16]); on hERG) was above 10 µM in each case. Also, the inhibition at 10 µM against Adenosine A2A came to 57%; on Cannabinoid CB1, 82%; on Opiate κ (OP2, KOP) it was 69%; against Progesterone, PR-B, 50%; in data set [14], 52%; in data set [12] it was 59%. On Vasopressin V1A, the inhibition at 10 µM was 69%. Also, the “% Inhibition at 10 μM, GABA A, chloride channel, TBOB” value in [13] is 54%. Also, the “% Inhibition at 10 μM, Transporter, Adenosine” value in the data set with Transporter, Adenosine is on record as 60%. The half-life is 20.8 min in “in vitro [4]”; 11.3 min in “in vitro [5]”; 17.1 min in the data set “in vitro [6]”; 10.6 min in the data set “in vitro [7]”; 31.5 min in the data set “in vitro [8]”.

The term inhibition denotes the relative decrease from the control value, in per cent. What is called half-life is the time needed for the level to fall by half in the phase considered. For orientation: % Inhibition means the drop in the measured response relative to a control, in per cent.
